Measurements taken from ChEMBL document CHEMBL4431321, “Profiling of Flavonol Derivatives for the Development of Antitrypanosomatidic Drugs” (J Med Chem, 2016).
Values belong to the compound of their own block, whether it stands above or below them. Active and inactive are the calls of the source. The calls are words filed in the database; no cut-off is given here.

How the values were obtained:
[1] = tested on: Trypanosoma brucei brucei; assay: Antitrypanosomal activity against Trypanosoma brucei brucei Lister 427 bloodstream forms after 72 hrs by resazurin-based assay; format: functional, organism-based; details: Lister 427, 72 h
[2] = tested on: Trypanosoma brucei brucei; assay: Antitrypanosomal activity against Trypanosoma brucei brucei Lister 427 bloodstream forms at 10 uM after 72 hrs by resazurin-based assay; format: functional, organism-based
A549 = assay: Cytotoxicity against human A549 cells at 100 uM after 48 hrs by cell titer glo assay; format: cell-based; details: a549, 48 h
[3] = biological target: Thymidylate synthase (Homo sapiens) (UniProt P04818); assay: Inhibition of human thymidylate synthase at 50 uM using folic aid as substrate by spectrophotometric analysis
Chain of Thymidylate synthase (Homo sapiens) (P04818 2-313 limits assumed): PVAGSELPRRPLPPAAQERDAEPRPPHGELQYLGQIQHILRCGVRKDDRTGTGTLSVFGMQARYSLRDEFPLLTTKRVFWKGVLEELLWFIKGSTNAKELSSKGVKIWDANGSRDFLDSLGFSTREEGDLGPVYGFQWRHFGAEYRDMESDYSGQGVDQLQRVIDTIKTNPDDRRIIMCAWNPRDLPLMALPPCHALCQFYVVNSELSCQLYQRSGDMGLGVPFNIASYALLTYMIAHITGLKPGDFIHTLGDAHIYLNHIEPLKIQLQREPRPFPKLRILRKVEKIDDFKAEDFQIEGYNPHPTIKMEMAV

in vitro = details: human, THP-1 cells
Description: Selectivity index, ratio of CC50 for human THP1 cells to EC50 for Trypanosoma brucei brucei Lister 427 bloodstream forms

Leishmania mexicana = assay: Inhibition of Leishmania mexicana DHFR at 50 uM using folic aid as substrate by spectrophotometric analysis
Trypanosoma brucei [4] = assay: Inhibition of Trypanosoma brucei DHFR at 50 uM using folic aid as substrate by spectrophotometric analysis
786-0 = assay: Mitochondrial toxicity in human 786-O cells incubated for 6 hrs by mitotracker red staining based-uptake method; format: cell-based; details: 786-0, 6 h
[5] = Cytotoxicity against human THP1 cells after 72 hrs by MTT assay; format: cell-based; details: THP-1 cells; for MNTC at 72 h: read-out: NOAEL
Cytochrome P450 1A2 = biological target: T1, Cytochrome P450 1A2 (Homo sapiens, UniProt P05177); assay: Inhibition of human microsomal CYP1A2 expressed in baculovirus infected BTI-TN-5B1-4 cells at 10 uM incubated for 30 mins by luciferase assay; format: ADME; details: bti-tn-5b1-4, 0.5 h, 10 µM
T1 sequence (P05177 whole entry): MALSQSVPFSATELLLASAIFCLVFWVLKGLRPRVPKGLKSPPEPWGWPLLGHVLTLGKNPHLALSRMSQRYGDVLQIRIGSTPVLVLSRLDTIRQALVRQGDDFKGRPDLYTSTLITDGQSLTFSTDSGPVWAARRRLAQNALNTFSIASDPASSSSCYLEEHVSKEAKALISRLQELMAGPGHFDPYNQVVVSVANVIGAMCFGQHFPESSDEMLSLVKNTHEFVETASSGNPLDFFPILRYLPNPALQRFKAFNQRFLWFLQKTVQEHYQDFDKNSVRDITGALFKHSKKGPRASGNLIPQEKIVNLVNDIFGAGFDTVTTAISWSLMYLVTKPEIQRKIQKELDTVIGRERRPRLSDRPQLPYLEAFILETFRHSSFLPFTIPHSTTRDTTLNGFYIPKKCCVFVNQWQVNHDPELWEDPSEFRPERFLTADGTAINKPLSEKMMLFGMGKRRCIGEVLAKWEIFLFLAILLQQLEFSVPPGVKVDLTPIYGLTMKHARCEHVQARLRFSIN

[6] = biological target: T2, Dihydrofolate reductase (Homo sapiens) (UniProt P00374); assay: Inhibition of human DHFR at 50 uM using folic aid as substrate by spectrophotometric analysis
T2 sequence (whole entry): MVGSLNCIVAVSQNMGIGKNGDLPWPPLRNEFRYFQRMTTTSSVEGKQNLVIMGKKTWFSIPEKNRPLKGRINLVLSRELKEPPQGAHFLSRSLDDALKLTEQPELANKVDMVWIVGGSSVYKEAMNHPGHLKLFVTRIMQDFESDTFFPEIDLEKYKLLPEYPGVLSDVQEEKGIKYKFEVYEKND

WI-38 = assay: Cytotoxicity against human WI38 cells at 100 uM after 48 hrs by cell titer glo assay; format: cell-based; details: wi-38, 48 h
[7] = tested on: Trypanosoma brucei brucei; assay: Antitrypanosomal activity against Trypanosoma brucei brucei Lister 427 bloodstream forms assessed as synergy coefficient at 1.25 to 5 uM after 72 hrs in presence of MTX by resazurin-based assay; format: functional
Trypanosoma brucei [8] = assay: Inhibition of Trypanosoma brucei PTR1 at 50 uM using H2B as substrate incubated for 10 mins followed by addition of NADPH measured for 10 to 50 mins
[9] = Inhibition of Trypanosoma brucei PTR1 using H2B as substrate incubated for 10 mins followed by addition of NADPH measured for 10 to 50 mins

SMILES: O=C(O)/C=C/c1cccc(O)c1
- IC50 [1]: < 30 µM

SMILES: O=C(O)/C=C/c1ccc(O)c(O)c1 [CAFFEIC ACID]
- IC50 [1]: < 30 µM

SMILES: CC1(C(=O)O)CCC2(C)CCC3(C)C(=CC(=O)C4C5(C)CCC(OC6OC(C(=O)O)C(O)C(O)C6OC6OC(C(=O)O)C(O)C(O)C6O)C(C)(C)C5CCC43C)C2C1 (stereo unspecified)
- IC50 [1]: < 30 µM

SMILES: COc1cccc(/C=C/C(=O)O)c1
- IC50 [1]: < 30 µM

SMILES: COc1ccc([C@H]2CC(=O)c3c(O)cc(O[C@@H]4O[C@H](CO[C@@H]5O[C@@H](C)[C@H](O)[C@@H](O)[C@H]5O)[C@@H](O)[C@H](O)[C@H]4O)cc3O2)cc1O
- IC50 [1]: < 30 µM

SMILES: O=c1c(O)c(-c2ccc(O)c(O)c2)oc2ccc(O)cc12
- Activity [2]: Active
- Activity (A549): Non-Toxic
- inhibition [3]: inactive
- selectivity ratio (in vitro): 6
- inhibition (Leishmania mexicana): < 25%
- inhibition (Trypanosoma brucei [4]): < 25%
- Activity (786-0): Non-Toxic
- MNTC at 72 h [5]: 10 µM
- EC50 [1]: 1.36 µM
- inhibition (INH) (Cytochrome P450 1A2): Not Active
- inhibition [6]: < 30%
- Activity (WI-38): Non-Toxic

SMILES: O=c1cc(-c2ccc(O)c(O)c2)oc2cc(O)cc(O)c12 [LUTEOLIN]
- IC50 [1]: < 30 µM

SMILES: O=c1oc2c(O)c(O)cc3c(=O)oc4c(O)c(O)cc1c4c23
- IC50 [1]: < 30 µM

SMILES: N=C(N)c1ccc(OCCCCCOc2ccc(C(=N)N)cc2)cc1 [PENTAMIDINE]
- selectivity ratio (in vitro): 6440
- MNTC at 72 h [5]: 10 µM

SMILES: O=C1CC(c2ccc(O)cc2)Oc2cc(O)cc(O)c21 (stereo unspecified)
- IC50 [1]: < 30 µM

SMILES: COc1ccc(/C=C/C(=O)O)cc1O [ISOFERULIC ACID]
- IC50 [1]: < 30 µM

SMILES: O=c1c(O)c(-c2ccc(O)cc2)oc2ccc(O)cc12
- Activity [2]: Active
- Activity (A549): Non-Toxic
- inhibition [3]: inactive
- selectivity ratio (in vitro): 7
- CI [7]: >1.5
- inhibition (Trypanosoma brucei [8]): 3%
- inhibition (Leishmania mexicana): < 25%
- inhibition (Trypanosoma brucei [4]): < 25%
- Activity (786-0): Non-Toxic
- MNTC at 72 h [5]: 20 µM
- EC50 [1]: 2.32 µM
- inhibition (INH) (Cytochrome P450 1A2): Not Active
- inhibition [6]: < 30%
- Activity (WI-38): Non-Toxic

SMILES: O=C(/C=C/c1ccc(O)c(O)c1)O[C@@H]1C[C@](O)(C(=O)O)C[C@@H](O)[C@H]1O [CHLOROGENIC ACID]
- IC50 [1]: < 30 µM

SMILES: O=C1c2c(O)cccc2C(C2OC(CO)C(O)C(O)C2O)c2cc(CO)cc(O)c21 (stereo unspecified)
- IC50 [1]: < 30 µM

SMILES: COc1cc(/C=C/C(=O)O)ccc1O [FERULATE]
- IC50 [1]: < 30 µM

SMILES: Oc1cc(O)c2c(c1)O[C@H](c1ccc(O)c(O)c1)[C@@H](O)C2 [CIANIDANOL]
- IC50 [1]: < 30 µM

SMILES: O=C(O)/C=C/c1ccccc1O [O-COUMARIC ACID]
- IC50 [1]: < 30 µM

SMILES: COc1ccc(-c2oc3cc(OC)ccc3c(=O)c2O)cc1
- Activity [2]: Active
- Activity (A549): Non-Toxic
- selectivity ratio (in vitro): 9
- Activity (786-0): Non-Toxic
- MNTC at 72 h [5]: 10 µM
- inhibition (INH) (Cytochrome P450 1A2): Not Active
- Activity (WI-38): Non-Toxic

SMILES: Oc1cc(O)c2c(c1)O[C@H](c1ccc(O)c(O)c1)[C@H](O)C2 [(-)-EPICATECHIN]
- IC50 [1]: < 30 µM

SMILES: O=C(O)c1cc(O)c(O)c(O)c1 [GALLIC ACID]
- IC50 [1]: < 30 µM

SMILES: COc1ccc([C@H]2CC(=O)c3c(O)cc(O[C@@H]4O[C@H](CO)[C@@H](O)[C@H](O)[C@H]4O[C@@H]4O[C@@H](C)[C@H](O)[C@@H](O)[C@H]4O)cc3O2)cc1O
- IC50 [1]: < 30 µM

SMILES: O=C(O)/C=C/c1ccc(O)cc1 [COUMARIC ACID]
- IC50 [1]: < 30 µM

SMILES: Cc1cc(O)c2c(c1)C(=O)c1cc(O)cc(O)c1C2=O [EMODIN]
- IC50 [1]: < 30 µM

SMILES: C[C@H]1O[C@@H](O[C@@H]2[C@H](Oc3cc(O)c4c(c3)OC(c3ccc(O)cc3)CC4=O)O[C@@H](CO)[C@H](O)[C@H]2O)[C@@H](O)[C@@H](O)[C@@H]1O (stereo partly specified)
- IC50 [1]: < 30 µM

Now from value to compound, other results behind:

- IC50 [1]: < 30 µM
SMILES: O=c1cc(-c2ccccc2)oc2ccccc12 [FLAVONE]

- IC50 [1]: < 30 µM
SMILES: COc1cc(-c2cc(=O)c3c(O)cc(O)cc3o2)ccc1O [CHRYSOERIOL]

- IC50 [1]: < 30 µM
SMILES: O=c1cc(-c2ccccc2)oc2cccc(O)c12 [5-HYDROXYFLAVONE]

- inhibition (INH) (Cytochrome P450 1A2): Not Active
SMILES: COc1ccc2oc(-c3ccc(OC)c(OC)c3)c(O)c(=O)c2c1
- Activity [2]: Active
- Activity (A549): Non-Toxic
- selectivity ratio (in vitro): 5
- CI [7]: >1
- Activity (786-0): Non-Toxic
- MNTC at 72 h [5]: 10 µM
- Activity (WI-38): Non-Toxic

- inhibition (INH) (Cytochrome P450 1A2): Not Active
SMILES: COc1cccc(-c2oc3cc(OC)ccc3c(=O)c2O)c1
- Activity [2]: Active
- Activity (A549): Non-Toxic
- selectivity ratio (in vitro): 8
- Activity (786-0): Non-Toxic
- MNTC at 72 h [5]: 10 µM
- Activity (WI-38): Non-Toxic

- IC50 [1]: < 30 µM
SMILES: O=c1cc(-c2ccc(O)c(O)c2)oc2cc(O[C@@H]3O[C@@H](CO)[C@H](O)[C@@H](O)[C@@H]3O)cc(O)c12

- IC50 [1]: < 30 µM
SMILES: O=c1cc(-c2ccccc2)oc2cc(O)cc(O)c12 [CHRYSIN]

- IC50 [1]: 9.1 µM
SMILES: O=c1c(O)c(-c2ccccc2)oc2ccccc12 [FLAVONOL]
- IC50 [9]: 12.8 µM

- IC50 [1]: < 30 µM
SMILES: COc1cc(O)c2c(=O)cc(-c3ccccc3)oc2c1 [TECHTOCHRYSIN]

- IC50 [1]: < 30 µM
SMILES: COc1ccc([C@@H]2CC(=O)c3c(O)cc(O)cc3O2)cc1O [HESPERETIN]

- inhibition [3]: inactive
- inhibition (Trypanosoma brucei [8]): 47%
- inhibition (Leishmania mexicana): < 25%
- inhibition (Trypanosoma brucei [4]): < 25%
- EC50 [1]: 12.3 µM
- inhibition (INH) (Cytochrome P450 1A2): Not Active
- inhibition [6]: < 30%
SMILES: O=c1c(O)c(-c2cccc(O)c2)oc2cc(O)ccc12
- Activity [2]: Active
- Activity (A549): Non-Toxic
- selectivity ratio (in vitro): 6
- CI [7]: >1
- Activity (786-0): Non-Toxic
- CC50 at 72 h [5]: 80 µM
- Activity (WI-38): Non-Toxic

- inhibition (INH) (Cytochrome P450 1A2): Not Active
SMILES: COc1ccc2c(=O)c(O)c(-c3ccc(OC)c(OC)c3)oc2c1
- Activity [2]: Active
- Activity (A549): Non-Toxic
- selectivity ratio (in vitro): 8
- Activity (786-0): Non-Toxic
- MNTC at 72 h [5]: 25 µM
- Activity (WI-38): Non-Toxic

- IC50 [1]: < 30 µM
SMILES: COc1cc(OC)c2c(=O)cc(-c3ccccc3)oc2c1 [CHRYSIN DIMETHYL ETHER]
